Tests used:
Type in all cases: cell-based
hNPY2R [1] = biological target: T1, hNPY2R (Homo sapiens, UniProt P49146); assay: cAMP Agonist Assay, HEK293/hNPY2R; parameters: expressed in transfected cells; host or cells: HEK293/hNPY2R (G418 selection)
T1 sequence (P49146 1-381): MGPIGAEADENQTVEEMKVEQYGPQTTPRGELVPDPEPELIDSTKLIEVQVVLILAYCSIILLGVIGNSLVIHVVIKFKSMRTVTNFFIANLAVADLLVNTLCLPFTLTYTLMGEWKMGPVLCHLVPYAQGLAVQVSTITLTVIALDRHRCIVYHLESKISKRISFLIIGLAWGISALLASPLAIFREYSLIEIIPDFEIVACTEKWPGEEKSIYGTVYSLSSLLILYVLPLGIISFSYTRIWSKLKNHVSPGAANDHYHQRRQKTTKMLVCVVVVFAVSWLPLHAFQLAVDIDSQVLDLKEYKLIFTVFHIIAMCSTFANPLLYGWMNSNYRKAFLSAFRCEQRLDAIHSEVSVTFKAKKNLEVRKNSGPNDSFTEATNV
Description: In this example, the following materials were used: 384-well plate; Tropix cAMP-Screen Kit; cAMP ELISA System (Applied Biosystems, cat. #T1505; CS 20000); Forskolin (Calbiochem cat. # 344270); cells: HEK293/hNPY2R; growth medium: Dulbecco's modified eagle medium (D-MEM, Gibco); 10% Fetal bovine serum (FBS, Gibco), heat-inactivated; 1% Penicillin/Streptomycin (Pen 10000 unit/mL: Strep […], Gibco); […] G418 (Geneticin, Gibco cat. # 11811-031); and plating medium: DMEM/F12 w/o phenol red (Gibco); 10% FBS (Gibco, cat. # 10082-147), heat-inactivated; 1% Penicillin/Streptomycin (Gibco, cat. # 15140-122); […] G418 (Geneticin, Gibco, cat. # 11811-031).
On the first day, medium was discarded, and the monolayer cells were washed with 10 mL PBS per flask (T225). After decanting with PBS, 5 mL VERSENE (Gibco, cat #1504006) was used to dislodge the cells (5 min @37 C). The flask was gently tapped and the cell suspension was pooled. Each flask was rinsed with 10 mL plating medium and centrifuged at 1000 rpm for 5 min. The suspension was pooled and counted. The suspension was resuspended in plating medium at a density of 2.0×10^5 cells/mL for HEK293/hNPY2R. 50 microliters of cells (HEK293/hNPY2R-10,000 cells/well) were transferred into the 384-well plate using Multi-drop dispenser. The plates were incubated at 37° C. overnight. On the second day, the cells were checked for 75-85% confluence. The media and reagents were allowed to come to room temperature. Before the dilutions were prepared, the stock solution of stimulating compound in dimethyl sulphoxide (DMSO, Sigma, cat #D2650) was allowed to warm up to 32 C for 5-10 min. The dilutions were prepared in DMEM/F12 with 0.5 mM 3-Isobutyl-1-methylxanthine (IBMX, Calbiochem, cat #410957) and 0.5 mg/mL BSA. The final DMSO concentration in the stimulation medium was 1.1% with Forskolin concentration of 5 μM. The cell medium was tapped off with a gentle inversion of the cell plate on a paper towel. 50 μL of stimulation medium was placed per well (each concentration done in four replicates). The plates were incubated at room temperature for 30 min, and the cells were checked under a microscope for toxicity. After 30 minutes of treatment, the stimulation media was discarded and […] of Assay Lysis Buffer (provided in the Tropix kit) was added. The plates were incubated for 45 min @ 37° C. 20 μL of the lysate was transferred from stimulation plates into the pre-coated antibody plates (384-well) from the Tropix kit. 10 μL of AP conjugate and 20 μL of anti-cAMP antibody was added. The plates were incubated at room temperature while shaking for 1 hour. The plates were then washed 5 times with Wash Buffer, 70 μL per well for each wash. The plates were tapped to dry. 30 μL/well of CSPD/Saphire-II RTU substrate/enhancer solution was added and incubated for 45 min @ RT (shake). Signal for 1 sec/well in a Luminometer. (VICTOR-V) was measured.

Y4R = Y4R (Homo sapiens, UniProt P50391); assay: CaFlux Assay (FLIPR), Y4R
Y4R, sequence (P50391 whole entry): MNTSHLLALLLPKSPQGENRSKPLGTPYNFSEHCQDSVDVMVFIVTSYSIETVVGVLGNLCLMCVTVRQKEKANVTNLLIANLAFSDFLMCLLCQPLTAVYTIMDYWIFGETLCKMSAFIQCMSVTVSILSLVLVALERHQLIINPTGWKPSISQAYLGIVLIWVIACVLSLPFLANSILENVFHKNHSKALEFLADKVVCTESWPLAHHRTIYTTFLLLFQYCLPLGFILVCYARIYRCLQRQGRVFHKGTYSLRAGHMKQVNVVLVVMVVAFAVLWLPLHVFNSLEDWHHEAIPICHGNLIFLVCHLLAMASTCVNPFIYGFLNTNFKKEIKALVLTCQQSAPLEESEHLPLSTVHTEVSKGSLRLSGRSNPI

hNPY2R [2] = biological target: T1, hNPY2R; assay: CaFlux Assay (FLIPR), Y2R; parameters: expressed in transfected cells; host or cells: HEK-293 stably transfected with G protein chimera Gαqi9
Description: HEK-293 cells were stably transfected with the G protein chimera Gαqi9 and the hygromycin-B resistance gene were further transfected with the human NPY2 receptor and G418 antibiotic selection. Following selection in both hygromycin-B and G418, individual clones were assayed for their response to PYY. The transfected cells were cultured in DMEM medium supplemented with 10% fetal bovine serum, 50 μg/mL hygromycin-B, 2 mM glutamine, 100 U/mL penicillin, 100 μg/mL streptomycin and 250 μg/mL G418. Cells are harvested with trypsin-EDTA and counted using ViaCount reagent. The cell suspension volume is adjusted to 4.8×10^5 cells/mL with complete growth media. Aliquots of 25 μL are dispensed into 384 well Poly-D Lysine coated black/clear microplates (Falcon) and the microplates were placed in a 37° C. CO2 incubator overnight. Loading Buffer (Calcium-3 Assay Kit, Molecular Devices) was prepared by dissolving the contents of one vial (Express Kit) into […] Hank's Balanced Salt Solution containing 20 mM HEPES and 5 mM probenecid. Aliquots of 25 μL of diluted dye were dispensed into the cell plates and the plates are then incubated for 1 hour at 37° C. During the incubation, test compounds were prepared at 3.5× the desired concentration in HBSS (20 mM HEPES)/0.05% BSA/1% DMSO and transferred to a 384-well plate for use on FLIPR. After incubation, both the cell and compound plates were brought to the FLIPR and 20 μL of the diluted compounds were transferred to the cell plates by the FLIPR. During the assay, fluorescence readings were taken simultaneously from all 384 wells of the cell plate every 1.5 seconds. Five readings were taken to establish a stable baseline, and then 20 μL of sample was rapidly (30 μL/sec) and simultaneously added to each well of the cell plate. The fluorescence was continuously monitored before, during and after sample addition for a total elapsed time of 100 seconds. Responses (increase in peak fluorescence) in each well following addition were determined. The initial fluorescence reading from each well, prior to ligand stimulation, was used as a zero baseline value for the data from that well. The responses are expressed as % of maximal response of the positive control.

Y1R = biological target: T2, Y1R (Homo sapiens, UniProt P25929); assay: CaFlux Assay (FLIPR), Y1R
T2 sequence (P25929 1-384): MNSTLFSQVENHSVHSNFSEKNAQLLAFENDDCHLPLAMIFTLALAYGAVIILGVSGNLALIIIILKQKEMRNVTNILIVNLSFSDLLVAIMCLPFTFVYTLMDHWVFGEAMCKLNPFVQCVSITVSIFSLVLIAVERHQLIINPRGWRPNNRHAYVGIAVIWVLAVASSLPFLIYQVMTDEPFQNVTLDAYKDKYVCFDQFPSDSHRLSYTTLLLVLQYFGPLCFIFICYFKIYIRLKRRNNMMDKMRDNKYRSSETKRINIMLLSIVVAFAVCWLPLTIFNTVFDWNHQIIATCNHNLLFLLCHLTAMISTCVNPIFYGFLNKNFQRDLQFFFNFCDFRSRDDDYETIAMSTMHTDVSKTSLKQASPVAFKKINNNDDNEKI

Y5R = biological target: T3, Y5R (Homo sapiens, UniProt Q15761); assay: CaFlux Assay (FLIPR), Y5R
T3 sequence (Q15761 1-445): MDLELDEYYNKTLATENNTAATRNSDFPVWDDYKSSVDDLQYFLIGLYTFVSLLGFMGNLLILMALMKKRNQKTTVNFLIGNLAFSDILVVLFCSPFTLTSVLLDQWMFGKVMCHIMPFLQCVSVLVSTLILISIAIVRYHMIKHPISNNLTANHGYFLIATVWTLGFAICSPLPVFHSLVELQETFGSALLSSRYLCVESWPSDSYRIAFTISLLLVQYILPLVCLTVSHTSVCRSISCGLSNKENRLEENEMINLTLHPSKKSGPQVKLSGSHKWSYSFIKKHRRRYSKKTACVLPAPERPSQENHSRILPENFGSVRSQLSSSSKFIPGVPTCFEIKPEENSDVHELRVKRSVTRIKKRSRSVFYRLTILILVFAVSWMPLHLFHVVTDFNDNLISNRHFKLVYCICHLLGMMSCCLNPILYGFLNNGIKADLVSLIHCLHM

CCCCCCCCCCCCCCCC(=O)NCCCCCC(=O)NCCCC[C@H](NC(=O)[C@@H](NC(=O)CCOCCOCCOCCOCCOCCOCCOCCOCCOCCOCCOCCOCCOCCOCCOCCOCCOCCOCCOCCOCCOCCOCCOCCOC)[C@@H](C)CC)C(=O)N1CCN(c2ccc3ncn(CC(=O)N[C@@H](CCCNC(=N)N)C(=O)N[C@@H](Cc4c[nH]cn4)C(=O)N[C@@H](Cc4ccc(O)cc4)C(=O)N[C@@H](CC(C)C)C(=O)N[C@@H](CC(N)=O)C(=O)N[C@@H](Cc4c[nH]c5ccccc45)C(=O)N[C@H](C(=O)N[C@H](C(=O)N[C@@H](CCCNC(=N)N)C(=O)N[C@@H](CCC(N)=O)C(=O)N(C)[C@@H](CCCNC(=N)N)C(=O)N[C@@H](Cc4ccc(O)cc4)C(N)=O)[C@@H](C)O)C(C)C)c(=O)c3c2)CC1 [Example 11]
EC50 (hNPY2R [1]): 0.08 nM | EC50 (Y4R): > 5000 nM | EC50 (hNPY2R [2]): 0.058 nM | EC50 (Y1R): > 5000 nM | EC50 (Y5R): 915 nM

CCCCCCCCCCCCCCCC(=O)NCCOCCNC(=O)CCC(=O)NCCCC[C@H](NC(=O)[C@@H](NC(=O)COCCOCCOCCOCCOCCOC)[C@@H](C)CC)C(=O)N1CCN(c2ccc3ncn(CC(=O)N[C@@H](CCCNC(=N)N)C(=O)N[C@@H](Cc4c[nH]cn4)C(=O)N[C@@H](Cc4ccc(O)cc4)C(=O)N[C@@H](CC(C)C)C(=O)N[C@@H](CC(N)=O)C(=O)N[C@@H](Cc4c[nH]c5ccccc45)C(=O)N[C@H](C(=O)N[C@H](C(=O)N[C@@H](CCCNC(=N)N)C(=O)N[C@@H](CCC(N)=O)C(=O)N(C)[C@@H](CCCNC(=N)N)C(=O)N[C@@H](Cc4ccc(O)cc4)C(N)=O)[C@@H](C)O)C(C)C)c(=O)c3c2)CC1 [Example 12]
EC50 (hNPY2R [1]): 0.09 nM | EC50 (Y4R): > 5000 nM | EC50 (hNPY2R [2]): 0.097 nM | EC50 (Y1R): > 5000 nM | EC50 (Y5R): 527 nM

CCCCCCCCCCCCCCCC(=O)NCCOCCNC(=O)CCC(=O)NCCCC[C@H](NC(=O)[C@@H](NC(=O)CCOCCOCCOCCOCCOCCOCCOCCOCCOCCOCCOCCOC)[C@@H](C)CC)C(=O)N1CCN(c2ccc3ncn(CC(=O)N[C@@H](CCCNC(=N)N)C(=O)N[C@@H](Cc4c[nH]cn4)C(=O)N[C@@H](Cc4ccc(O)cc4)C(=O)N[C@@H](CC(C)C)C(=O)N[C@@H](CC(N)=O)C(=O)N[C@@H](Cc4c[nH]c5ccccc45)C(=O)N[C@H](C(=O)N[C@H](C(=O)N[C@@H](CCCNC(=N)N)C(=O)N[C@@H](CCC(N)=O)C(=O)N(C)[C@@H](CCCNC(=N)N)C(=O)N[C@@H](Cc4ccc(O)cc4)C(N)=O)[C@@H](C)O)C(C)C)c(=O)c3c2)CC1 [Example 13]
EC50 (hNPY2R [1]): 0.15 nM | EC50 (Y4R): > 5000 nM | EC50 (hNPY2R [2]): 0.055 nM | EC50 (Y1R): > 5000 nM | EC50 (Y5R): 401 nM

CCCCCCCCCCCCCCCC(=O)NCCOCCNC(=O)CCC(=O)NCCCC[C@H](NC(=O)[C@@H](NC(=O)CCOCCOCCOCCOCCOCCOCCOCCOCCOCCOCCOCCOCCOCCOCCOCCOC)[C@@H](C)CC)C(=O)N1CCN(c2ccc3ncn(CC(=O)N[C@@H](CCCNC(=N)N)C(=O)N[C@@H](Cc4c[nH]cn4)C(=O)N[C@@H](Cc4ccc(O)cc4)C(=O)N[C@@H](CC(C)C)C(=O)N[C@@H](CC(N)=O)C(=O)N[C@@H](Cc4c[nH]c5ccccc45)C(=O)N[C@H](C(=O)N[C@H](C(=O)N[C@@H](CCCNC(=N)N)C(=O)N[C@@H](CCC(N)=O)C(=O)N(C)[C@@H](CCCNC(=N)N)C(=O)N[C@@H](Cc4ccc(O)cc4)C(N)=O)[C@@H](C)O)C(C)C)c(=O)c3c2)CC1 [Example 14]
EC50 (hNPY2R [1]): 0.08 nM | EC50 (Y4R): > 5000 nM | EC50 (hNPY2R [2]): 0.032 nM | EC50 (Y1R): > 5000 nM | EC50 (Y5R): 370 nM | Y5R FLIPR agonist character (partial agonist mark) (Y5R): P.A

CCCCCCCCCCCCCCCC(=O)NCCOCCNC(=O)CCC(=O)NCCCC[C@H](NC(=O)[C@@H](NC(=O)CCOCCOCCOCCOCCOCCOCCOCCOCCOCCOCCOCCOCCOCCOCCOCCOCCOCCOCCOCCOCCOCCOCCOCCOC)[C@@H](C)CC)C(=O)N1CCN(c2ccc3ncn(CC(=O)N[C@@H](CCCNC(=N)N)C(=O)N[C@@H](Cc4c[nH]cn4)C(=O)N[C@@H](Cc4ccc(O)cc4)C(=O)N[C@@H](CC(C)C)C(=O)N[C@@H](CC(N)=O)C(=O)N[C@@H](Cc4c[nH]c5ccccc45)C(=O)N[C@H](C(=O)N[C@H](C(=O)N[C@@H](CCCNC(=N)N)C(=O)N[C@@H](CCC(N)=O)C(=O)N(C)[C@@H](CCCNC(=N)N)C(=O)N[C@@H](Cc4ccc(O)cc4)C(N)=O)[C@@H](C)O)C(C)C)c(=O)c3c2)CC1 [Example 15]
EC50 (hNPY2R [1]): 0.06 nM | EC50 (Y4R): > 5000 nM | EC50 (hNPY2R [2]): 0.084 nM | EC50 (Y1R): > 5000 nM | EC50 (Y5R): 248 nM | Y5R FLIPR agonist character (partial agonist mark) (Y5R): P.A

Source: patent US20110172147A1, “NEUROPEPTIDE-2 RECEPTOR (Y-2R) AGONISTS” (priority 2009, published 2011)
